ChEMBL document CHEMBL1148920, “Ingenamine G and cyclostellettamines G-I, K, and L from the new Brazilian species of marine sponge Pachychalina sp” (2004)

Legend:
Type in all cases: functional
Escherichia coli = test: Antibacterial activity against Escherichia coli ATCC 25922
[1] = test system: Mycobacterium tuberculosis; test: Antimycobacterial activity against Mycobacterium tuberculosis H37Rv
HCT-8 = test: Cytotoxicity against human HCT8 cells
B16 = test: Cytotoxicity against mouse B16 cells
Staphylococcus aureus = test: Antibacterial activity against Staphylococcus aureus ATCC 25923
MCF7 = test: Cytotoxicity against human MCF7 cells

OC1/C=C\C=C/CCN2CC3C=C4CCCCCCCCCC/C=C\CCN5CCC3C(C1)(C5)C42 (stereo unspecified) [INGENAMINE G]
Activity (Escherichia coli): 75 µg/mL | Activity [1]: 8 µg/mL | Activity (HCT-8): 8.6 µg/mL | Activity (B16): 9.8 µg/mL | Activity (Staphylococcus aureus): 105 µg/mL | Activity (MCF7): 11.3 µg/mL
